Read-outs that look alike come from different tables or passages of the source.
Biological target: PHGDH (Homo sapiens (Human), UniProt O43175)
Assay: 3-Phosphoglycerate Dehydrogenase (PHGDH) Fluorescence Intensity Assay, run at two NAD/3-PG ratios: PHGDH_HIGH_NAD/3-PG (250 μM NAD/500 μM 3-PG) and PHGDH_500_NAD/3-PG (500 μM NAD/500 μM 3-PG)
Format: biochemical
[1] = 250 μM NAD/500 μM 3-PG, read-out: IC50 (PHGDH_HIGH_NAD/3-PG)
[2] = 500 μM NAD/500 μM 3-PG, read-out: IC50 (PHGDH_500_NAD/3-PG)

PHGDH, sequence (O43175 2-533 limits assumed): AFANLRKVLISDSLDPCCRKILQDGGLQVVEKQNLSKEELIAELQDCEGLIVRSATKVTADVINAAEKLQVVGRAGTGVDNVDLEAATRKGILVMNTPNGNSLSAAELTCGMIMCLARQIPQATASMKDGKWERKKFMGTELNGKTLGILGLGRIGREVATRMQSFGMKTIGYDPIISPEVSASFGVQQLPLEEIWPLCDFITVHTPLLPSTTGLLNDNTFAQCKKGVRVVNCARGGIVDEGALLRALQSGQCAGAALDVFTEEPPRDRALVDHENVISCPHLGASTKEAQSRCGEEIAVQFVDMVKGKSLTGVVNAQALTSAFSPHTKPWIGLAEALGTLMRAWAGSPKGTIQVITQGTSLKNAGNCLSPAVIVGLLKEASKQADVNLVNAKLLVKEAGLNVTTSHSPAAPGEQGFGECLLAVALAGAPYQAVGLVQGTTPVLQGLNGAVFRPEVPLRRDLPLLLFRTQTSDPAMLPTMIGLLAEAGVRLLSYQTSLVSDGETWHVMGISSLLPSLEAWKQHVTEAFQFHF
Description: This assay is used to identify compounds which inhibit the enzymatic activity of PHGDH which catalyzes the reaction of 3-Phosphoglycerate (3-PG) and NAD to 3-Phosphohydroxypyruvate and NADH.
The produced NADH is used in a coupled reaction for Diaphorase mediated reduction of Resazurin to Resorufin which can be measured in a Fluorescence Intensity readout.
The full length version of PHGDH enzyme was expressed in E. coli with an N-terminal HIS-tag and a TEV cleavage site.
The 3-Phosphoglycerate substrate was purchased from Sigma. NAD, Diaphorase and Resazurin were purchased from Sigma Aldrich.
Compounds are dispensed onto assay plates (black, low volume, flat bottom 384 well, Corning) using an Access Labcyte Workstation with the Labcyte Echo 55× from a DMSO solution. For the chosen highest assay concentration of 100 μM, 150 nl of compound solution are transferred from a 10 mM DMSO compound stock solution. A series of 11 concentrations (10 1:5 steps) is transferred for each compound.
The assay has been performed at two different NAD/3-PG ratios (final assay concentrations):
Plates are kept at room temperature. After 240 minutes incubation time the fluorescence signal is measured in a PerkinElmer Envision HTS Multilabel Reader with an excitation wavelength at 530-560 nm and an emission wavelength at 590 nm.
Each plate contains negative controls (diluted DMSO instead of test compound; reaction as described with PHGDH protein) and positive controls (diluted DMSO instead of test compound; reaction as described with buffer instead of PHGDH protein). Negative and positive control values are used for normalization.
IC50 values are calculated and analyzed in the MEGALAB IC50 application using a 4 parametric logistic model.

CC(NC(=O)c1cc2c(Cl)cc(I)cc2n1C)c1ccc(S(=O)(=O)CC(=O)O)cc1 (stereo not shown) [Example 03-008, 2-(4-{1-[(4-chloro-6-iodo-1-methyl-1H-indol-2-yl)formamido]ethyl}benzenesulfonyl)acetic acid]
IC50 [1]: 24 nM

Cc1nc2c(cc(C(=O)N[C@H](C)c3ccc(S(=O)(=O)CC(=O)O)cc3)n2C)c(Cl)c1Cl [Example 03-010, 2-{4-[(1R)-1-({4,5-dichloro-1,6-dimethyl-1H-pyrrolo[2,3-b]pyridin-2-yl}formamido)ethyl]benzenesulfonyl}acetic acid]
IC50 [1]: 170 nM

Cc1cc2c(cc(C(=O)N[C@H](CO)c3ccc(S(=O)(=O)CC(=O)O)cc3)n2C)c(F)c1F [Example 03-012, 2-{4-[(1S)-1-[(4,5-difluoro-1,6-dimethyl-1H-indol-2-yl)formamido]-2-hydroxyethyl]benzenesulfonyl}acetic acid]
IC50 [1]: 8 nM | IC50 [2]: 17 nM

Cc1cc(Cl)c2cc(C(=O)N[C@H](CO)c3ccc(S(=O)(=O)CC(=O)O)cc3)n(C)c2n1 [Example 03-013, 2-{4-[(1S)-1-({4-chloro-1,6-dimethyl-1H-pyrrolo[2,3-b]pyridin-2-yl}formamido)-2-hydroxyethyl]benzenesulfonyl}acetic acid]
IC50 [1]: 35 nM

Cc1cc2c(cc(C(=O)N[C@H](C)c3ccc(S(=O)(=O)CC(=O)O)cc3)n2C)c(Cl)c1F [Example 03-014, 2-{4-[(1R)-1-[(4-chloro-5-fluoro-1,6-dimethyl-1H-indol-2-yl)formamido]ethyl]benzenesulfonyl}acetic acid]
IC50 [1]: 5 nM | IC50 [2]: 7 nM

Cc1cc(Cl)c2cc(C(=O)N[C@H](C)c3ccc(S(=O)(=O)CC(=O)O)cc3)n(C)c2n1 [Example 03-015, 2-{4-[(1R)-1-({4-chloro-1,6-dimethyl-1H-pyrrolo[2,3-b]pyridin-2-yl}formamido)ethyl]benzenesulfonyl}acetic acid]
IC50 [1]: 41 nM

Cc1cc2c(cc(C(=O)N[C@H](CO)c3ccc(S(=O)(=O)CC(=O)O)cc3)n2C)c(Cl)c1F [Example 03-016, 2-{4-[(1S)-1-[(4-chloro-5-fluoro-1,6-dimethyl-1H-indol-2-yl)formamido]-2-hydroxyethyl]benzenesulfonyl}acetic acid]
IC50 [1]: 5 nM | IC50 [2]: 7 nM

CN1CCN(c2cc(Cl)c3cc(C(=O)N[C@H](CO)c4ccc(S(=O)(=O)CC(=O)O)cc4)n(C)c3c2)CC1 [Example 03-017, 2-{4-[(1S)-1-{[4-chloro-1-methyl-6-(4-methylpiperazin-1-yl)-1H-indol-2-yl]formamido}-2-hydroxyethyl]benzenesulfonyl}acetic acid]
IC50 [1]: 40 nM | IC50 [2]: 146 nM

C[C@@H](NC(=O)c1cc2c(Cl)cc(N3CCN(C)CC3)cc2n1C)c1ccc(S(=O)(=O)CC(=O)O)cc1 [Example 03-018, 2-{4-[(1R)-1-{[4-chloro-1-methyl-6-(4-methylpiperazin-1-yl)-1H-indol-2-yl]formamido}ethyl]benzenesulfonyl}acetic acid]
IC50 [1]: 84 nM | IC50 [2]: 292 nM

C[C@@H](NC(=O)c1cc(-c2ccccc2)nn1C)c1ccc(S(=O)(=O)CC(=O)O)cc1 [Example 04-001, 2-{4-[(1R)-1-[(1-methyl-3-phenyl-1H-pyrazol-5-yl)formamido]ethyl]benzenesulfonyl}acetic acid]
IC50 [1]: 145 nM

C[C@@H](NC(=O)c1cc(-c2ccc(F)cc2)nn1C)c1ccc(S(=O)(=O)CC(=O)O)cc1 [Example 04-002, 2-{4-[(1R)-1-{[3-(4-fluorophenyl)-1-methyl-1H-pyrazol-5-yl]formamido}ethyl]benzenesulfonyl}acetic acid]
IC50 [1]: 76 nM

C[C@@H](NC(=O)c1cc(-c2cccc3cc[nH]c23)nn1C)c1ccc(S(=O)(=O)CC(=O)O)cc1 [Example 04-003, 2-{4-[(1R)-1-{[3-(1H-indol-7-yl)-1-methyl-1H-pyrazol-5-yl]formamido}ethyl]benzenesulfonyl}acetic acid]
IC50 [1]: 53 nM | IC50 [2]: 87 nM

Cn1nc(-c2ccc(F)cc2)cc1C(=O)N[C@H](CO)c1ccc(S(=O)(=O)CC(=O)O)cc1 [Example 04-004, 2-{4-[(1S)-1-{[3-(4-fluorophenyl)-1-methyl-1H-pyrazol-5-yl]formamido}-2-hydroxyethyl]benzenesulfonyl}acetic acid]
IC50 [1]: 174 nM | IC50 [2]: 299 nM

COC(=O)C(C)(C)S(=O)(=O)c1ccc([C@@H](C)NC(=O)c2cc3cc(Cl)ccc3n2C)cc1 [Example 05-002, methyl 2-{4-[(1R)-1-[(5-chloro-1-methyl-1H-indol-2-yl)formamido]ethyl]benzenesulfonyl}-2-methylpropanoate]
IC50 [1]: 33100 nM

COC(=O)C(C)S(=O)(=O)c1ccc([C@@H](C)NC(=O)c2cc3cc(Cl)ccc3n2C)cc1 (stereo partly drawn) [Example 05-006, methyl 2-{4-[(1R)-1-[(5-chloro-1-methyl-1H-indol-2-yl)formamido]ethyl]benzenesulfonyl}propanoate]
IC50 [1]: 3050 nM

COC(=O)C(C)(C)S(=O)(=O)c1ccc([C@@H](C)NC(=O)c2cc3c(Cl)cc(C)cc3n2C)cc1 [Example 05-007, methyl 2-{4-[(1R)-1-[(4-chloro-1,6-dimethyl-1H-indol-2-yl)formamido]ethyl]benzenesulfonyl}-2-methylpropanoate]
IC50 [1]: 4520 nM

COC(=O)C1(S(=O)(=O)c2ccc([C@@H](C)NC(=O)c3cc4c(Cl)cc(C)cc4n3C)cc2)CCCC1 [Example 05-008, methyl 1-{4-[(1R)-1-[(4-chloro-1,6-dimethyl-1H-indol-2-yl)formamido]ethyl]benzenesulfonyl}cyclopentane-1-carboxylate]
IC50 [1]: 18300 nM

CCCC(C(=O)OC)S(=O)(=O)c1ccc([C@@H](C)NC(=O)c2cc3c(Cl)cc(C)cc3n2C)cc1 (stereo partly drawn) [Example 05-015, methyl 2-{4-[(1R)-1-[(4-chloro-1,6-dimethyl-1H-indol-2-yl)formamido]ethyl]benzenesulfonyl}pentanoate]
IC50 [1]: 3470 nM

CCOC(=O)C(C)(C)S(=O)(=O)c1ccc([C@@H](C)NC(=O)c2cc3c(Cl)c(Cl)c(C)nc3n2C)cc1 [Example 05-016, ethyl 2-{4-[(1R)-1-({4,5-dichloro-1,6-dimethyl-1H-pyrrolo[2,3-b]pyridin-2-yl}formamido)ethyl]benzenesulfonyl}-2-methylpropanoate]
IC50 [1]: > 100000 nM

COC(=O)C(C)(C)S(=O)(=O)c1ccc([C@@H](C)NC(=O)c2cc3c(Cl)c(Cl)c(C)nc3n2C)cc1 [Example 05-020, methyl 2-{4-[(1R)-1-({4,5-dichloro-1,6-dimethyl-1H-pyrrolo[2,3-b]pyridin-2-yl}formamido)ethyl]benzenesulfonyl}-2-methylpropanoate]
IC50 [1]: > 20000 nM

COC(=O)C1(S(=O)(=O)c2ccc([C@@H](CO)NC(=O)c3cc4c(Cl)cc(C)cc4n3C)cc2)CCOCC1 [Example 05-021, methyl 4-{4-[(1S)-1-[(4-chloro-1,6-dimethyl-1H-indol-2-yl)formamido]-2-hydroxyethyl]benzenesulfonyl}oxane-4-carboxylate]
IC50 [1]: 2450 nM

COC(=O)C(C)(C)S(=O)(=O)c1ccc([C@@H](C)NC(=O)c2cc3c(Cl)c(Cl)c(C)cc3n2C)cc1 [Example 05-022, methyl 2-{4-[(1R)-1-[(4,5-dichloro-1,6-dimethyl-1H-indol-2-yl)formamido]ethyl]benzenesulfonyl}-2-methylpropanoate]
IC50 [1]: 5580 nM

Cc1cc2c(cc(C(=O)N[C@H](C)c3ccc(S(=O)(=O)C4CCOC4=O)cc3)n2C)c(Cl)c1Cl (stereo partly drawn) [Example 05-023, 4,5-dichloro-1,6-dimethyl-N-[(1R)-1-{4-[(2-oxooxolan-3-yl)sulfonyl]phenyl}ethyl]-1H-indole-2-carboxamide]
IC50 [2]: 119 nM

Cc1cc2c(cc(C(=O)N[C@H](C)c3ccc(S(=O)(=O)C4CCOC4=O)cc3)n2C)c(F)c1F (stereo partly drawn) [Example 05-024, 4,5-difluoro-1,6-dimethyl-N-[(1R)-1-{4-[(2-oxooxolan-3-yl)sulfonyl]phenyl}ethyl]-1H-indole-2-carboxamide]
IC50 [2]: 119 nM

Cc1cc2c(cc(C(=O)N[C@H](C)c3ccc(S(=O)(=O)C4CCCOC4=O)cc3)n2C)c(Cl)c1Cl (stereo partly drawn) [Example 05-025, 4,5-dichloro-1,6-dimethyl-N-[(1R)-1-{4-[(2-oxooxan-3-yl)sulfonyl]phenyl}ethyl]-1H-indole-2-carboxamide]
IC50 [2]: 20 nM

COC(=O)C1(S(=O)(=O)c2ccc([C@@H](C)NC(=O)c3cc(-c4ccc(F)cc4)nn3C)cc2)CCCC1 [Example 06-003, methyl 1-{4-[(1R)-1-{[3-(4-fluorophenyl)-1-methyl-1H-pyrazol-5-yl]formamido}ethyl]benzenesulfonyl}cyclopentane-1-carboxylate]
IC50 [1]: 11700 nM

CC(C)OC(=O)C(C)S(=O)(=O)c1ccc([C@@H](C)NC(=O)c2cc(-c3ccccc3)nn2C)cc1 (stereo partly drawn) [Example 06-004, propan-2-yl 2-{4-[(1R)-1-[(1-methyl-3-phenyl-1H-pyrazol-5-yl)formamido]ethyl]benzenesulfonyl}propanoate]
IC50 [1]: 78200 nM

CC(C)OC(=O)C(C)(C)S(=O)(=O)c1ccc([C@@H](C)NC(=O)c2cc(-c3ccccc3)nn2C)cc1 [Example 06-005, propan-2-yl 2-methyl-2-{4-[(1R)-1-[(1-methyl-3-phenyl-1H-pyrazol-5-yl)formamido]ethyl]benzenesulfonyl}propanoate]
IC50 [1]: 15900 nM

CC(C)OC(=O)C(C)(C)S(=O)(=O)c1ccc([C@@H](CO)NC(=O)c2cc(-c3ccc(F)cc3)nn2C)cc1 [Example 06-006, propan-2-yl 2-{4-[(1S)-1-{[3-(4-fluorophenyl)-1-methyl-1H-pyrazol-5-yl]formamido}-2-hydroxyethyl]benzenesulfonyl}-2-methylpropanoate]
IC50 [1]: 14500 nM

CC(C)OC(=O)C(C)S(=O)(=O)c1ccc([C@@H](CO)NC(=O)c2cc(-c3ccc(F)cc3)nn2C)cc1 (stereo partly drawn) [Example 06-007, propan-2-yl 2-{4-[(1S)-1-{[3-(4-fluorophenyl)-1-methyl-1H-pyrazol-5-yl]formamido}-2-hydroxyethyl]benzenesulfonyl}propanoate]
IC50 [1]: 29600 nM

From patent US11304929B2, “Tosylacetate based compounds and derivatives thereof as PHGDH inhibitors” (priority 2017, dated 2022)
